Source: ChEMBL document CHEMBL3763153, “Recent Update on Human Lactate Dehydrogenase Enzyme 5 (hLDH5) Inhibitors: A Promising Approach for Cancer Chemotherapy” (J Med Chem, 2016)
pIC50, pKi: −log10 of the molar value.

Experiments:
[1] = molecular target: L-lactate dehydrogenase B chain (Homo sapiens, UniProt P07195)
Description: Competitive inhibition of human LDH1 in presence of NADH

[2] = molecular target: T1, L-lactate dehydrogenase A chain (Homo sapiens, UniProt P00338)
Description: Competitive inhibition of human LDH5 in presence of NADH

[3] = molecular target: T1, L-lactate dehydrogenase A chain; assay: Competitive inhibition of human LDH5 incubated for 15 mins in presence of NADH by fluorescence analysis

Sequence of L-lactate dehydrogenase B chain (P07195 whole entry): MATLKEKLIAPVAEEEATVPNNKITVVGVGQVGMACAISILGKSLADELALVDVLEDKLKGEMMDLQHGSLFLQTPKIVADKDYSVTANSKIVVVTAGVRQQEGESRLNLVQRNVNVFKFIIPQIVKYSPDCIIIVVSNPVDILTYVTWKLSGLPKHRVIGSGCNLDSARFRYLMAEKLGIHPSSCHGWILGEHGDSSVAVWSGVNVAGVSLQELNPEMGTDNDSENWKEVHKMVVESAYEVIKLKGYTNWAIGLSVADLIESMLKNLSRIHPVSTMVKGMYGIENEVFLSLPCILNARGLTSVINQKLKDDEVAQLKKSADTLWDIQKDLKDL

Structure (SMILES)	pKi [1]	pKi [2]	further results
Cc1cc2c(C(C)C)c(O)c(O)c3c2c(c1-c1c(C)cc2c(C(C)C)c(O)c(O)c4c2c1OC4=O)OC3=O	6.40	6.22	
CCCc1c(O)c(O)c(C(=O)O)c2ccc(C)cc12		6.00	
O=C(O)CCCc1ccc(-n2cc(CCCn3cc(C4=C(c5c[nH]c6ccccc56)C(=O)NC4=O)c4ccccc43)nn2)cc1			pIC50 [2]: 4.83
Cc1cc2c(C(C)C)c(O)c(O)c(C(=O)O)c2cc1Cc1ccccc1		6.70	
O=C(O)CCCCn1cc(CCCCn2cc(C3=C(c4c[nH]c5ccccc45)C(=O)NC3=O)c3ccccc32)nn1			pIC50 [2]: 4.44
O=C(O)c1cc2c(C(F)(F)F)cc(-c3ccccc3)cc2n1O[C@@H]1O[C@H](CO)[C@@H](O)[C@H](O)[C@H]1O			pKi [3]: 4.71
Cc1cc2c(C(C)C)c(O)c(O)c(C(=O)O)c2cc1-c1ccc2c(C(C)C)c(O)c(O)c(C(=O)O)c2c1	6.15	5.89	
Cc1cc2c(C(C)C)c(O)c(O)c3c2c(c1-c1c(C)cc2c(C(C)C)c(O)c(O)c4c2c1OC4=N)OC3=N	4.04	5.60	
CC(=O)Oc1c(-c2c(C)cc3c(C(C)C)c(O)c(O)c(C#N)c3c2OC(C)=O)c(C)cc2c(C(C)C)c(O)c(O)c(C#N)c12		5.70	
CCCCC(=O)Oc1c(-c2c(C)cc3c(C(C)C)c(O)c(O)c(C#N)c3c2OC(=O)CCCC)c(C)cc2c(C(C)C)c(O)c(O)c(C#N)c12		5.04	
Cc1cc2c(C(C)C)c(O)c(O)c(C=O)c2c(O)c1-c1c(C)cc2c(C(C)C)c(O)c(O)c(C=O)c2c1O [GOSSYPOL]		5.72	
NC(=O)C(=O)O [OXAMATE]	4.03		

Continued, in another order:

pKi [1]	pKi [2]	Structure (SMILES)	further results
5.10	7.52	Cc1ccc(-c2cc3c(C(=O)O)c(O)c(O)c(C(C)C)c3cc2C)cc1	
< 3.90	5.52	Cc1ccccc1-c1cc2c(C(=O)O)c(O)c(O)c(C(C)C)c2cc1C	
5.10	6.00	Cc1cc2c(C(C)C)c(O)c(O)c(C(=O)O)c2cc1Cc1ccc(Cl)cc1	
	6.70	Cc1cccc(-c2cc3c(C(=O)O)c(O)c(O)c(C(C)C)c3cc2C)c1	
